Measured values: US7034047B2, “Triazole derivative” (Astellas Pharma, Inc., priority 2000, dated 2006)

Assays:
[1] = biological target: T1, GLYT1 subtype of the glycine transporter (Rattus norvegicus, UniProt P28572); experiment: [3H]-glycine uptake assay in C6 glioma cells (action of inhibiting glycine transporter); assay type: cell-based; settings: 20 min at 37° C., read-out: GLYT-inhibiting activity IC50
T1 construct: C6 glioma cell expressing GLYT1 subtype of the glycine transporter; host or cells: C6 glioma cells
T1 sequence (P28572 1-638): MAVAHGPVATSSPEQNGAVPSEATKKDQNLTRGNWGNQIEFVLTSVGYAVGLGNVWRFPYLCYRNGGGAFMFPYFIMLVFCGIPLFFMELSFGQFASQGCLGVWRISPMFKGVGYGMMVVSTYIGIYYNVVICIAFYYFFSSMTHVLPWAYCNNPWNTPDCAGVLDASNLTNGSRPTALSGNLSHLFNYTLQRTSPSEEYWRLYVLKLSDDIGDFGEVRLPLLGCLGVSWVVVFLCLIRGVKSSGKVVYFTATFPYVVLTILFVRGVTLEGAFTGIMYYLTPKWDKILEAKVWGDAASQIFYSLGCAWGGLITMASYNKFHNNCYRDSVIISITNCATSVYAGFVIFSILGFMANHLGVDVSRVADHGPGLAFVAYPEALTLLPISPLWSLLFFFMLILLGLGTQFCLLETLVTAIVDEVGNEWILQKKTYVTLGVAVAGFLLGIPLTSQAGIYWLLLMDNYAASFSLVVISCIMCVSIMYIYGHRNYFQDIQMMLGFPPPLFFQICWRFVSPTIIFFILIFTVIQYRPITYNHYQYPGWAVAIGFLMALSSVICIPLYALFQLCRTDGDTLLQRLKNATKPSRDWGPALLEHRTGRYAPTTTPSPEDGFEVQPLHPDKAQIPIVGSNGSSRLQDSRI
Protocol: 1. Action of Inhibiting Glycine Transporter
C6 glioma cell (American Type Culture Collection) was cultured in DMEM containing 10% fetal bovine serum, 100 units/ml penicillin G and 0.1 mg/ml streptomycin sulfate in a CO2 incubator under conditions of 5% CO2 and 37° C.
[^3H]-glycine uptake was performed by the method of Gomeza, et al.
C6 glioma cells were plated out at a concentration of 2×10^4 cells/well in a 96-well plate (Culturplate, Packard Co.), for culturing for 2 days. Subsequently, [^3H]-glycine uptake was tested. The cell was rinsed once in a buffer (150 mM NaCl, 5 mM KCl, 1 mM CaCl2, 1 mM MgCl2, 10 mM glucose, 5 mM L-alanine, 10 mM Hepes-Na, pH 7.4), followed by subsequent addition of the buffer, for incubation at 37° C. for 10 minutes.
After incubation, the buffer was exchanged to a reaction buffer including [^3H]-glycine (about 0.2 μM, 41 Ci/mmol, New England Nuclear)and a compound to be assessed, for incubation at 37° C. for another 20 minutes. After 20-min reaction, the reaction mixture was rinsed in ice-cold PBS (phosphate buffered saline). The cell was dissolved in 0.1N NaOH solution, to assay the radioactivity incorporated with a liquid scintillation counter. The specific incorporation was defined as a portion substituted with 3 mM sarcosine in the total incorporation. The test compound was assessed by determining the incorporation-inhibiting ratio of the specific incorporation.

[2] = tested on: (+)-HA966-induced enhancement of activity; experiment: (+)-HA966-induced enhancement of activity in mouse; assay type: in vivo, male ICR mouse; settings: orally given at 10 mg/kg; below 50% judged to have the effect
Text: Compound 1: • 3-(biphenyl-4-yl)-4-(2-methoxyphenyl)-5-methyl-4H-1,2,4-triazole (Japanese Patent unexamined uplication No. 2000-63363; Example 33) Compound 2: • 3-(biphenyl-4-yl)-5-(furan-2-yl)-4-phenyl-4H-1,2,4-triazole (LTPBP42 CD-ROM catalog 1996 of LaboTest Co. (Freiberg, Germany)) Compound 3: • 3-(biphenyl-4-yl)-5-ethyl-4-(2-methoxyphenyl)-4H-1,2,4-triazole (Japanese Patent unexamined publication No. 2000-63363; Example 23) 2. Experimental Method of (+)-HA966—Induced Enhancement of Activity in Mouse
The method reported previously (J. Neural Transm., 97: 175–185, 1994) was used for carrying out the experiment with modification. • Animal: male ICR mouse (Nippon SLC; age 5 to 7 weeks) • Chemical drug: reserpine (Apoplon Injection of 1 mg/ml; manufactured by Daiichi Pharmaceuticals Co., Ltd.), (+)-HA966 (Proc. Nat. Acad. Sci. U.S.A., 87, 347–351, 1990), α-methyl-para-tyrosine methyl ester (Sigma,Inc.). • Experimental apparatus: Supermex (Muromachi Machine) Experimental Method • (1) Pharmaceutical drug-treated groups were defined as follows. […] The effect was determined as follows. […] It was calculated by following formula. […]

IC50 [1]: 360 nM
Structure (SMILES): CC(C)c1nnc(-c2ccc(-c3ccccc3)cc2)n1-c1ccccc1F [Production Example 1, 3-Biphenyl-4-yl-4-(2-fluorophenyl)-5-isopropyl-4H-1,2,4-triazole]
normalized activity ((+)-HA966-induced enhancement = 100%) [2]: 43%
